ChEMBL document CHEMBL1201862, “PubChem BioAssay data set” (2004)
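Dose response: 5 concentrations. Exposure: 48 h. Format: 96-well plates. Endpoint: linear interpolation; highest concentration if not reached. Here, GI50 denotes the concentration required for 50% inhibition of growth.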 Active and inactive are the calls of the source. Rule as the data show it: active = GI50 up to about 1.1 µM and inactive = higher.

Assays:
Test in all cases: growth of human tumour cells (NCI), 48 h
UO-31 = system: UO-31
HCT-15 = system: HCT-15
HT-29 = system: HT-29
A498 = system: A498
OVCAR-5 = system: OVCAR-5
SF-539 = system: SF-539
IGROV-1 = system: IGROV-1
UACC-257 = system: UACC-257
A549 = system: A549
SK-OV-3 = system: SK-OV-3
NCI-H460 = system: NCI-H460
CCRF-CEM = system: CCRF-CEM
KM12 = system: KM12
786-0 = system: 786-0
SK-MEL-5 = system: SK-MEL-5
NCI-H23 = system: NCI-H23
HOP-92 = system: HOP-92

Row | Structure (SMILES) | GI50 (UO-31) | GI50 (HCT-15) | GI50 (HT-29) | GI50 (A498) | GI50 (OVCAR-5) | GI50 (SF-539) | GI50 (IGROV-1) | GI50 (UACC-257) | GI50 (A549) | GI50 (SK-OV-3) | GI50 (NCI-H460) | GI50 (CCRF-CEM) | GI50 (KM12) | GI50 (786-0) | GI50 (SK-MEL-5) | GI50 (NCI-H23) | GI50 (HOP-92)
1 | COC(=O)C1CC2C=CC=CC(=O)C2(C)C1 (stereo unspecified) | > 100 µM (inactive) | 31 µM | 40 µM (inactive) | 36.2 µM (inactive) | > 100 µM (inactive) | > 100 µM (inactive) | > 100 µM (inactive) | 38.7 µM (inactive) | > 100 µM (inactive) | > 100 µM (inactive) | 41.8 µM (inactive) | 21.6 µM (inactive) | 45.7 µM (inactive) | 36.6 µM (inactive) | 51.1 µM (inactive) | 44.3 µM (inactive) | –
2 | OCC1OC(NO)C(O)C(O)C1O (stereo unspecified) | – | > 100 µM | > 100 µM (inactive) | > 100 µM (inactive) | > 100 µM (inactive) | > 100 µM (inactive) | > 100 µM (inactive) | > 100 µM (inactive) | > 100 µM (inactive) | – | > 100 µM (inactive) | > 100 µM (inactive) | > 100 µM (inactive) | > 100 µM (inactive) | > 100 µM (inactive) | > 100 µM (inactive) | > 100 µM (inactive)
3 | C[N+](C)(C)CC(=O)N/N=C(/Cc1cc(=O)oc2cc(O)ccc12)C(=O)Nc1ccc(Cl)cc1 | > 100 µM (inactive) | – | > 100 µM (inactive) | > 100 µM (inactive) | > 100 µM (inactive) | > 100 µM (inactive) | > 100 µM (inactive) | > 100 µM (inactive) | > 100 µM (inactive) | > 100 µM (inactive) | > 100 µM (inactive) | > 100 µM (inactive) | > 100 µM (inactive) | > 100 µM (inactive) | > 100 µM (inactive) | > 100 µM (inactive) | –
4 | CC(C)N(C(=O)C12C3C4C1C1C2C3C41C(O)C(C)(C)C)C(C)C (stereo unspecified) | > 50 µM (inactive) | > 50 µM | > 50 µM (inactive) | > 50 µM (inactive) | – | > 50 µM (inactive) | > 50 µM (inactive) | – | > 50 µM (inactive) | > 50 µM (inactive) | – | > 50 µM (inactive) | – | > 50 µM (inactive) | > 50 µM (inactive) | – | 34.7 µM (inactive)
5 | O=C(Cn1cc(I)c(C(=O)NCC(O)CO)n1)NCC(O)CO (stereo unspecified) | > 100 µM (inactive) | > 100 µM | > 100 µM (inactive) | > 100 µM (inactive) | – | > 100 µM (inactive) | > 100 µM (inactive) | > 100 µM (inactive) | > 100 µM (inactive) | > 100 µM (inactive) | > 100 µM (inactive) | > 100 µM (inactive) | > 100 µM (inactive) | > 100 µM (inactive) | – | > 100 µM (inactive) | > 100 µM (inactive)
6 | CC(C)(C)c1cc(C(=O)O)c(C(c2ccccc2)c2ccccc2C(=O)O)c(C(=O)O)c1 (stereo unspecified) | > 100 µM (inactive) | > 100 µM | > 100 µM (inactive) | – | > 100 µM (inactive) | > 100 µM (inactive) | – | > 100 µM (inactive) | > 100 µM (inactive) | 21.7 µM (inactive) | > 100 µM (inactive) | > 100 µM (inactive) | > 100 µM (inactive) | > 100 µM (inactive) | – | > 100 µM (inactive) | –
7 | CCCCCCCCCCCCCP(=O)(OC)OC | 16.3 µM (inactive) | 17.7 µM | 18.4 µM (inactive) | – | 16.5 µM (inactive) | 17 µM (inactive) | 19.3 µM (inactive) | 19.4 µM (inactive) | 21.2 µM (inactive) | 19 µM (inactive) | 17.1 µM (inactive) | 20.8 µM (inactive) | 17.5 µM (inactive) | 19.5 µM (inactive) | 18.6 µM (inactive) | 18.7 µM (inactive) | 16.9 µM (inactive)
8 | CN/N=C(\C)c1c(O)cc(C)oc1=O | > 100 µM (inactive) | > 100 µM | > 100 µM (inactive) | > 100 µM (inactive) | – | > 100 µM (inactive) | – | > 100 µM (inactive) | > 100 µM (inactive) | > 100 µM (inactive) | > 100 µM (inactive) | > 100 µM (inactive) | > 100 µM (inactive) | > 100 µM (inactive) | – | > 100 µM (inactive) | > 100 µM (inactive)
9 | CC(C)NCCNC(=O)c1ccccc1Nc1c(Cl)cccc1Cl | 10.1 µM (inactive) | 13 µM | 4.71 µM (inactive) | – | 7.38 µM (inactive) | 15.8 µM (inactive) | 16 µM (inactive) | 10.3 µM (inactive) | 17.3 µM (inactive) | 14.8 µM (inactive) | 3.29 µM (inactive) | 10.5 µM (inactive) | 16.9 µM (inactive) | 4.16 µM (inactive) | 5.04 µM (inactive) | 17.7 µM (inactive) | –
10 | C[Si](C)(C)CN1C(=O)c2ccccc2C1(O)c1ccccc1 (stereo unspecified) | 30.5 µM (inactive) | > 68.4 µM | 87.9 µM (inactive) | > 100 µM (inactive) | > 100 µM (inactive) | > 100 µM (inactive) | 99.5 µM (inactive) | 57.3 µM (inactive) | 40.4 µM (inactive) | – | 65.6 µM (inactive) | 66.4 µM (inactive) | 59.7 µM (inactive) | > 100 µM (inactive) | 46.6 µM (inactive) | 50.6 µM (inactive) | 44.6 µM (inactive)
11 | CC(=O)C=C1Nc2ccccc2N1 | > 100 µM (inactive) | > 100 µM | > 100 µM (inactive) | – | > 100 µM (inactive) | > 100 µM (inactive) | > 100 µM (inactive) | > 100 µM (inactive) | > 100 µM (inactive) | – | > 100 µM (inactive) | > 100 µM (inactive) | > 100 µM (inactive) | > 100 µM (inactive) | > 100 µM (inactive) | > 100 µM (inactive) | –
12 | CC(=O)c1ccc(NC(=O)COC(=O)c2cccc3c(=O)c4ccccc4[nH]c23)cc1 | 96.2 µM (inactive) | – | 45.5 µM (inactive) | 44 µM (inactive) | – | 8.91 µM (inactive) | 37.4 µM (inactive) | 57.7 µM (inactive) | 45.4 µM (inactive) | 67.8 µM (inactive) | 22.6 µM (inactive) | > 100 µM (inactive) | 12.9 µM (inactive) | 37.8 µM (inactive) | 29.4 µM (inactive) | 18.6 µM (inactive) | 25.9 µM (inactive)
13 | COC(=O)C(=O)C1(CCC(C)=O)c2ccccc2-c2c(C)ccc(C)c21 (stereo unspecified) | 25.4 µM (inactive) | 32.6 µM | 32.7 µM (inactive) | 55.7 µM (inactive) | > 100 µM (inactive) | – | 57.8 µM (inactive) | 33 µM (inactive) | 46.5 µM (inactive) | 84.1 µM (inactive) | 33 µM (inactive) | 37.1 µM (inactive) | 43 µM (inactive) | 64 µM (inactive) | 25.5 µM (inactive) | 24.7 µM (inactive) | –
14 | CC12CC[C@H](O)C(C)(C)[C@H]1CC[C@](C)(O)C2COc1ccc2ccc(=O)oc2c1 (stereo partly specified) | > 100 µM (inactive) | > 100 µM | > 100 µM (inactive) | > 100 µM (inactive) | – | > 100 µM (inactive) | > 100 µM (inactive) | > 100 µM (inactive) | 81.7 µM (inactive) | > 100 µM (inactive) | > 100 µM (inactive) | > 100 µM (inactive) | > 100 µM (inactive) | > 100 µM (inactive) | – | > 100 µM (inactive) | > 100 µM (inactive)
